Tests used:
[1] = Nitric oxide radical scavenging assay (Griess reaction); settings: NO radical scavenging
Protocol: Nitric oxide was generated from sodium nitroprusside and measured by Griess’ reaction following the literature method. The experiment was done in triplicate with ascorbic acid (vitamin C) used as a positive control for the assay. In total, 50 μL of each of the test compounds and the positive control at various concentrations (0.1, 0.5, 1.0, 5.0, and 10.0 μM in methanol) were added to each designated well of the 96 well plate. A total of 50 μL of sodium nitroprusside (10 mM) prepared in saline phosphate buffer (pH = 7.4) was then added to each well and the reaction mixture incubated at room temperature for 3 h. Afterward, 300 μL of the Griess reagent (a mixture of 0.2% N-(1-naphthyl)ethylenediamine dihydrochloride and 2% sulfanilamide in […]) was added to each well and absorbance was read at 546 nm using a Varioskan flash microplate spectrophotometer reader.

[2] = DPPH radical scavenging assay; settings: read-out: IC50 (SD) DPPH
Protocol: The antioxidant activities of the test compounds against ascorbic acid (Sigma Aldrich, Saint Louis, MO, USA) as a positive control were evaluated using a 2,2-diphenyl-1-picrylhydrazyl (DPPH) radical scavenging assay developed by Zhu et al., as described in our previous study. Duplicate solutions (20 μL) of the test compounds and ascorbic acid in DMSO (final concentrations: 5, 10, 25, 50, and 100 μM) were added into each designated well of a 96-well plate. A solution of DPPH (0.20 mM) (20 μL) in methanol was added to each well, and the 96-well plate was wrapped with aluminium foil and incubated in the dark for 45 min. Five absorbance readings were recorded at 512 nm using a Varioskan flash microplate spectrophotometer reader. The average values obtained from the absorbance readings were used to determine the IC50 and standard deviation values.

[3] = tested on: BChE; design: method as in PMID 23722618; settings: cited from earlier work
[4] = molecular target: T1, β-secretase (Homo sapiens, UniProt P56817); assay: β-Secretase (BACE-1) inhibition assay; assay type: biochemical; settings: mean ± SD of three independent experiments
T1 construct: purchased Thermo Fisher Scientific Corporation; host or cells: baculovirus-expressed
T1 sequence (P56817 46-501): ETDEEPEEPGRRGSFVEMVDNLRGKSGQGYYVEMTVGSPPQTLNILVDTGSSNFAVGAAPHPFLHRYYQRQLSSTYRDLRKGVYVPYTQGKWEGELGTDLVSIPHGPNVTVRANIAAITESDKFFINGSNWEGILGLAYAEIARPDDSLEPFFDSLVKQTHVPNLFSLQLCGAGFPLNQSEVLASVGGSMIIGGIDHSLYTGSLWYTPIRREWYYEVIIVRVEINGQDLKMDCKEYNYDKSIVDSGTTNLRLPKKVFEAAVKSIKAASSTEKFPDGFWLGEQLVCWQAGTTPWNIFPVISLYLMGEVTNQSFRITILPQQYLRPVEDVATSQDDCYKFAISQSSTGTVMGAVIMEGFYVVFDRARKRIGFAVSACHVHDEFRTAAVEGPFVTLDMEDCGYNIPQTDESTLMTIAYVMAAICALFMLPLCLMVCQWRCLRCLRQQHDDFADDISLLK
Protocol: The β-secretase inhibitory activities of the test compounds were assayed in triplicates in 96-well plates using a recombinant baculovirus-expressed β-secretase and a specific substrate (Rh-[…]-Quencher), according to the manufacturer’s (Thermo Fisher Scientific Corporation, Johannesburg, Gauteng, South Africa) instructions, as described in our previous study. […] To each well, 2.0 μL human recombinant β-secretase (1.0 U/mL) was added to start the reaction and the reaction mixture was incubated for 60 min at room temperature. […] The IC50 and standard deviation values of both the test compounds and reference standard were calculated using the Graph Pad Prism.

[5] = molecular target: T2, BChE (Homo sapiens, UniProt P06276); assay: biochemical; settings: mean ± SD of three independent experiments
T2 construct: purchased Cloud-Clone Corp. (via Biocom Africa (Pty) Ltd.)
T2 sequence (P06276 29-602): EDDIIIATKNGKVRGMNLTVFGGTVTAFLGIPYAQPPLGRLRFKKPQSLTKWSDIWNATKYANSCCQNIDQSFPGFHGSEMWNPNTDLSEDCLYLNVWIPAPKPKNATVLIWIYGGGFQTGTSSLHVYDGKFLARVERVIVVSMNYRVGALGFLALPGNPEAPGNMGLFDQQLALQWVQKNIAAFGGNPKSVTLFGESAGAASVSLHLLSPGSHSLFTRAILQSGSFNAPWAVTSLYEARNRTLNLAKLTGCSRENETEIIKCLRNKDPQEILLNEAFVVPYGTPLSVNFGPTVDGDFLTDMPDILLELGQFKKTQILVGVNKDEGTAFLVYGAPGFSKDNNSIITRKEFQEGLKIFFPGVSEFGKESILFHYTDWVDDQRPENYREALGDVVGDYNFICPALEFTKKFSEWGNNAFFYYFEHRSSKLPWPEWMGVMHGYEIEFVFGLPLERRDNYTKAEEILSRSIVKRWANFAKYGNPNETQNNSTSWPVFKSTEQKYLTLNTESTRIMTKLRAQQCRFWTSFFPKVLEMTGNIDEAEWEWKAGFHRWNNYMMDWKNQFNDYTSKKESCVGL
Protocol: (§1) The melting point values of the test compounds were recorded on a Thermocouple digital melting point apparatus (Mettler Toledo LLC, Columbus, OH, USA). The infrared (IR) spectra were recorded using the thin-film method on a Bruker VERTEX 70 FT-IR Spectrometer (Bruker Optics, Billerica, MA, USA) equipped with an ATR (diamond attenuated total reflectance) accessory. Merck kieselgel 60 (0.063–0.200 mm) (Merck KGaA, Frankfurt, Germany) was used as a stationary phase for column chromatography. The ^1H-NMR and ^13C-NMR spectra of the prepared compounds were obtained as deuterated dimethyl sulfoxide ((CD3)2SO) solutions using Agilent 500 MHz NMR spectrometer (Agilent Technologies, Oxford, UK) operating at 500 MHz and 125 MHz for ^1H and ^13C, respectively. The chemical shifts are quoted relative to tetramethylsilane (TMS) used as an internal reference standard (δ = 0.00 ppm) or a residual protonated solvent. The high-resolution mass spectra were recorded at an ionization potential of 70 eV using Micromass Autospec-TOF (double focusing high resolution) instrument (Waters Corp., Milford, MA, USA). The synthesis and analytical data for 2-amino-5-iodobenzamide (1) have been reported in our previous study. Recombinant human AChE (BioLegend) and BChE (Cloud-Clone Corp.) were purchased via Biocom Africa (Pty) Ltd. (Centurion, Pretoria, South Africa).
(§2) AChE and BChE were used to determine cholinesterase activities spectrophotometrically using […] as substrates, respectively, following a modification of the Ellman’s method, as described in our previous study, and the reactions were performed in triplicate at 37 °C in a 96-well plate. […] A multi-channel pipette was used for the addition of reagents to the wells.
A total of 8.0 μL of the test compound and 2.0 μL of BChE (0.02 mg/mL) was added to each of the designated wells of the 96-well plate, and the mixtures were incubated at room temperature for 30 min. Tris buffer (70 μL) was added to each well containing the reaction mixture and incubation was continued for a further 10 min at this temperature, which was followed by the addition of 10 μL solution of 5,5′-dithiobis-(2-nitrobenzoic acid) (DTNB) (3 mM in Tris buffer, 50 mM, pH 7.7) and butyrylcholine iodide (5 mM in Tris buffer, 50 mM, pH 7.7) to each well to initiate the reaction. […] The IC50 and standard deviation values using the Graph Pad Prism.

[6] = molecular target: T3, AChE (Homo sapiens, UniProt P22303); assay: biochemical; settings: mean ± SD of three independent experiments
T3 construct: purchased BioLegend (via Biocom Africa (Pty) Ltd.)
T3 sequence (P22303 32-614): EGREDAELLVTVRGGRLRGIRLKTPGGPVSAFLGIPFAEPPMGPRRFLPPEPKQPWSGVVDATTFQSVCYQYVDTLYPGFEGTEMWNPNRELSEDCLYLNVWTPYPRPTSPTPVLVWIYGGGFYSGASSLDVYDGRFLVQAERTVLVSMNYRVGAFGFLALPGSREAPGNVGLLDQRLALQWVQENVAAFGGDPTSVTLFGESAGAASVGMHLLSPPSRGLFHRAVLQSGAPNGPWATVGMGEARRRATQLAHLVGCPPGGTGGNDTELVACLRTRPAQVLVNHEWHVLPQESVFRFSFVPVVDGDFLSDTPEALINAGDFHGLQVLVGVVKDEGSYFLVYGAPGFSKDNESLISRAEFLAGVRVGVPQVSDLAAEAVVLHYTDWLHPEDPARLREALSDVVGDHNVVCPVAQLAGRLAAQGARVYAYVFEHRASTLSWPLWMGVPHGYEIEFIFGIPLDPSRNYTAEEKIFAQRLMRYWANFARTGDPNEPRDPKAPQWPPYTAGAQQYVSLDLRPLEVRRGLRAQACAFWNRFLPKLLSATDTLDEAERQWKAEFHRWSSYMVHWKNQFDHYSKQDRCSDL
Protocol: as §1, §2
To each well of a 96-well plate, 8.0 μL solution of the test compound, 2.0 μL of AChE (0.04 mg/mL), and 70 μL of Tris buffer (C4H11NO3, 50 mM, pH 7.7) were added sequentially. The assay mixture was pre-incubated for 30 min at room temperature, which was followed by the addition of 10 μL of 5,5′-dithiobis-(2-nitrobenzoic acid) (DTNB, 3 mM in Tris buffer, 50 mM, pH 7.7) and 10 μL of […] (AChI, 5 mM in tris buffer, 50 mM, pH 7.7) to each well to initiate the reaction. […] The average values obtained from the absorbance readings were used to determine the IC50 and standard deviation values using the Graph Pad Prism (version 5.0, GraphPad software Inc., San Diego, CA, USA).

[7] = Cytotoxicity (MTT assay) on Vero cells
Protocol: (§3) The cytotoxicity activity of the compounds was evaluated using the 3-(4,5-dimethylthiazol-2-yl)-2,5-diphenyltetrazolium bromide (MTT) assay following a modification of a method by Mosmann. Normal monkey kidney cells (Vero cells) and adeno-carcinomic human epithelial cells (A549 cells) were maintained in Dulbecco’s modified Eagle’s medium (DMEM, Gibco) supplemented with 10% fetal bovine serum (FBS) and 1% penicillin/streptomycin in culture flasks and incubated at 37 °C in 5% CO2. […] Cells were seeded at 1 × 10^5 cells/well and incubated overnight to allow cell attachment. After 24 h, treatments were administered with different concentrations (0, 2.5, 5, 10, 25, 50, and 100 μM) of the compounds and doxorubicin (positive control). After 24 h of incubation, 20 μL of the MTT solution (5 mg/mL) was added in all the wells, which was followed by 4 h of incubation.

[8] = tested on: Vero cells; assay: LPS-induced ROS production in Vero cells (H2DCF-DA); assay type: cell-based, monkey; settings: 10 μM compound, LPS 1 μg/mL, 24 h (Figure 9a)
Protocol: (§4) Mitochondrial ROS levels in Vero and A549 cell lines was measured using the 2′,7′-dichlorofluorescin diacetate (H2DCF-DA) (Sigma-Aldrich, St. Louis, MO, USA, Merck, Darmstadt, Germany), fluorescent probe. Cells (1 × 10^5) were seeded in 96 well plates and incubated overnight at 37 °C in 5% CO2. A minimum non-toxic concentration (10 μM) of compounds (2a and 3b) was added separately as treatment and further incubated for an hour, after which LPS (1 μg/mL) was added to induce the production of ROS. After 24 h of incubation, the media was aspirated, cells were rinsed with PBS, and followed by the addition of H2DCF-DA (10 μM) for 30 min in the dark. The absorbance of the fluorescence was measured using a microplate reader (VarioSkan Flash, Thermo Fisher Scientific, Finland) at 485 and 535 nm values of excitation and emission, respectively. Data was processed and analysed using ANOVA, which was followed by Duncan’s multiple comparison test.

[9] = in vitro; settings: human
Protocol: as §3

[10] = tested on: A549 cells; assay: LPS-induced ROS production in A549 cells (H2DCF-DA); assay type: cell-based, human; settings: 10 μM compound, LPS 1 μg/mL, 24 h (Figure 9b)
Protocol: as §4

Compound | IC50 [1] | IC50 [2] | IC50 [4] | IC50 [5] | IC50 [6] | other results
O=C1O[C@H]([C@@H](O)CO)C(O)=C1O [Ascorbic acid, reference compound] | 6.23 ± 0.13 µM | 4.18 ± 0.13 µM |  |  |  | IC50 ([1]; listed as ascorbic acid): 6.2 µM; IC50 ([2]; listed as ascorbic acid): 4.2 µM
Oc1ccccc1/C=C/c1cc(O)c(F)c(O)c1 [C] |  |  |  |  |  | fold more active and selective against BChE than against AChE [3]: 94 fold
NC(=O)c1cc(/C=C/c2ccc(F)cc2)ccc1N [Compound 2b, (E)-2-Amino-5-(4-fluorostyryl)benzamide] | 15.8 ± 0.3 µM | 12.9 ± 0.22 µM | 13.9 ± 0.25 µM | 19.7 ± 0.25 µM | 5.4 ± 0.12 µM | 
NC(=O)c1cc(/C=C/c2ccc(Cl)cc2)ccc1N [Compound 2c, (E)-2-Amino-5-(4-chlorostyryl)benzamide] | 9.3 ± 0.13 µM | 11.3 ± 0.11 µM | 6.7 ± 0.18 µM | 18.9 ± 0.24 µM | 8.6 ± 0.42 µM | 
COc1ccc(/C=C/c2ccc(N)c(C(N)=O)c2)cc1 [Compound 2d, (E)-2-Amino-5-(4-methoxystyryl)benzamide] | 11.2 ± 0.22 µM | 20.8 ± 0.24 µM | 17.2 ± 0.31 µM | 14.6 ± 0.47 µM | 7.8 ± 0.3 µM | 
Cc1ccc(S(=O)(=O)Nc2ccc(/C=C/c3ccccc3)cc2C(N)=O)cc1 [Compound 3a, (E)-5-Styryl-2-[[(4-methylphenyl)sulfonyl]amino]benzamide] | 13.1 ± 0.43 µM | 19.4 ± 0.4 µM | 16.5 ± 0.31 µM | 10.8 ± 0.4 µM | 9.5 ± 0.53 µM | 
Cc1ccc(S(=O)(=O)Nc2ccc(/C=C/c3ccc(F)cc3)cc2C(N)=O)cc1 [Compound 3b, (E)-5-(4-Fluorostyryl)-2-[[(4-methylphenyl)sulfonyl]amino]benzamide] |  | 25.6 ± 0.3 µM | 10.1 ± 0.18 µM | 8.1 ± 0.52 µM | 4.3 ± 0.48 µM | IC50 at 24 h ([7]; monkey, Vero cells (normal monkey kidney cells)): 191.4 ± 0.6 µM; suppression of LPS-induced ROS [8]: ~40%; IC50 at 24 h ([9]; A549 cells (adeno-carcinomic human epithelial cells)): 55 ± 0.11 µM; ROS reduction (in words) [10]: significant ROS reduction
Cc1ccc(S(=O)(=O)Nc2ccc(/C=C/c3ccc(Cl)cc3)cc2C(N)=O)cc1 [Compound 3c, (E)-5-(4-Chlorostyryl)-2-[[(4-methylphenyl)sulfonyl]amino]benzamide] | 8.6 ± 0.3 µM | 22.4 ± 0.51 µM | 15 ± 0.16 µM | 6.9 ± 0.1 µM | 7.8 ± 0.21 µM | 
COc1ccc(/C=C/c2ccc(NS(=O)(=O)c3ccc(C)cc3)c(C(N)=O)c2)cc1 [Compound 3d, (E)-5-(4-Methoxystyryl)-2-[[(4-methylphenyl)sulfonyl]amino]benzamide] | 12.3 ± 0.31 µM | 9.1 ± 0.26 µM | 19.3 ± 0.24 µM | 13.3 ± 0.26 µM | 11.3 ± 0.23 µM | 
COc1cccc2c1C(=O)c1c(O)c3c(c(O)c1C2=O)C[C@@](O)(C(=O)CO)C[C@@H]3O[C@H]1C[C@H](N)[C@H](O)[C@H](C)O1 [Doxorubicin, reference compound] |  |  |  |  |  | IC50 at 24 h [7]: 0.66 ± 0.12 µM; IC50 at 24 h [9]: 1.14 ± 0.23 µM
